The record followed here is US20240059703A1 (AMGEN INC., priority 2021, published 2024).

Molecules are shown by their SMILES.

Assay [1] deals with MIA PaCa-2 (human pancreatic carcinoma) cells. Description: Cell Viability Assay (CellTiter-Glo), MIA PaCa-2. It is filed as cell-based. Particulars: Homo sapiens, MIA PaCa-2, 72 h. The method, then: Serially-diluted compound or DMSO was added to the cells, and plates were incubated at 37° C., 5% CO2 for 72 h. Cell viability was measured using a CellTiter-Glo® Luminescent Cell Viability Assay kit (Promega) according to the manufacturer's protocol. The luminescence signal of treated samples was normalized to DMSO control, and data were analyzed using a 4-parameter logistic model to calculate IC50 values.
(In general: Cellular ATP, detected with luciferase, serves as a proxy for viable cell number.)

The test system of assay [2] is A549 (human lung carcinoma) cells. Nature of the assay: Cell Viability Assay (CellTiter-Glo), A549. Particulars: Homo sapiens, A549, 72 h. It is filed as cell-based. In outline: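 Cells grown in RPMI 1640 with 10% FBS were seeded at 1.67E+04 cells/mL and left overnight at 37° C., 5% CO2. They were then exposed to serially diluted compound for 72 h, after which CellTiter-Glo luminescence was read, normalized to DMSO, and fitted to a 4-parameter logistic model for IC50.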

Assay [3] addresses KRAS G12C (Homo sapiens (Human), UniProt P01116, C118A/G12C). Description: 2 h coupled exchange assay. The conditions noted are these: Avg 2 h Coupled exchange IC50, 2 h compound pre-incubation, SOS-mediated nucleotide exchange. It is filed as biochemical. The method, then: The term “2 h coupled exchange assay” or “20 h coupled exchange assay” as used herein refers to the assay described in the Section entitled “BIOLOGICAL EVALUATION.”

Sequence of KRAS G12C (P01116 other isoform, or with tags, fused parts or gaps G12C/C118A): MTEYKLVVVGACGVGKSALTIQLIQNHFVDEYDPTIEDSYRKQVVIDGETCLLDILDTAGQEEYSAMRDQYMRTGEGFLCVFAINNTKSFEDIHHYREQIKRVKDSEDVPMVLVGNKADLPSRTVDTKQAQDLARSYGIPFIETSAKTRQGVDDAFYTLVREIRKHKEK

On to `C=CC(=O)N1CC2(CCN(c3cc4c(c(-c5cc(O)cc6ccccc56)c3C#N)OCCC4)C2)C1` [Example 2-52, 8-(3-hydroxy-1-naphthalenyl)-6-(2-(2-propenoyl)-2,6-diazaspiro[3.4]octan-6-yl)-3,4-dihydro-2H-chromene-7-carbonitrile], for which the IC50 (in general, the point on the concentration scale where inhibition reaches its midpoint) in assay [1] is 61 nM; in assay [2], above 5000 nM; in assay [3], 26 nM.

In the case of `C=CC(=O)N1CC2(CCN(c3nc4c(c(-c5cc(O)ccc5C)c3C)CCC(C)(C)C4)C2)C1` [Example 2-62, 1-(6-(4-(5-hydroxy-2-methylphenyl)-3,7,7-trimethyl-5,6,7,8-tetrahydro-2-quinolinyl)-2,6-diazaspiro[3,4]octan-2-yl)-2-propen-1-one], the IC50 in assay [1] was 1270 nM; in assay [2] it was above 5000 nM; in assay [3], 186 nM.

`C=CC(=O)N1CC2(CCN(c3nc4c(c(-c5cc(O)ccc5Cl)c3C#N)C[C@H]3C[C@@H]4C3(C)C)C2)C1` [Example 2-64, (1R,9R)-6-(2-chloro-5-hydroxyphenyl)-10,10-dimethyl-4-(2-(2-propenoyl)-2,6-diazaspiro[3.4]octan-6-yl)-3-azatricyclo[7.1.1.0^2,7]undeca-2,4,6-triene-5-carbonitrile]: the IC50 is 432 nM in assay [1], above 5000 nM in assay [2] and 39 nM in assay [3].

On to `C=CC(=O)N1CC2(CCN(c3nc4c(c(-c5cc(O)ccc5F)c3C#N)C[C@H]3C[C@@H]4C3(C)C)C2)C1` [Example 2-66, (1R,9R)-6-(2-fluoro-5-hydroxyphenyl)-10,10-dimethyl-4-(2-(2-propenoyl)-2,6-diazaspiro[3.4]octan-6-yl)-3-azatricyclo[7.1.1.0^2,7]undeca-2,4,6-triene-5-carbonitrile], for which the IC50 is 735 nM in assay [1], above 5000 nM in assay [2] and 89 nM in assay [3].

Take `C=CC(=O)N1CC2(CCN(c3nc4c(c(-c5cc(O)ccc5C)c3C#N)C[C@H]3C[C@@H]4C3(C)C)C2)C1` [Example 2-67, (1R,9R)-6-(5-hydroxy-2-methylphenyl)-10,10-dimethyl-4-(2-(2-propenoyl)-2,6-diazaspiro[3.4]octan-6-yl)-3-azatricyclo[7.1.1.0^2,7]undeca-2,4,6-triene-5-carbonitrile]: the IC50 in assay [1] was 381 nM; in assay [2], above 5000 nM; in assay [3], 38 nM.

Consider `C=CC(=O)N1CC2(CCN(c3nc4c(c(-c5c(F)cccc5CO)c3C#N)C[C@H]3C[C@@H]4C3(C)C)C2)C1` [Example 2-73, (1R,9R)-6-(2-fluoro-6-(hydroxymethyl)phenyl)-10,10-dimethyl-4-(2-(2-propenoyl)-2,6-diazaspiro[3.4]octan-6-yl)-3-azatricyclo[7.1.1.0^2,7]undeca-2,4,6-triene-5-carbonitrile], for which the IC50 in assay [1] was 1940 nM; in assay [2], above 5000 nM; in assay [3], 228 nM.

For the molecule `C=CC(=O)N1CC2(CCN(c3nc4c(c(-c5cc(O)ccc5C)c3Cl)COC(C)(C)C4)C2)C1` [Example 2-79, 1-(6-(3-chloro-4-(5-hydroxy-2-methylphenyl)-7,7-dimethyl-7,8-dihydro-5H-pyrano[4,3-b]pyridin-2-yl)-2,6-diazaspiro[3.4]octan-2-yl)-2-propen-1-one], the IC50 in assay [1] is 159 nM; in assay [2] it was above 5000 nM; in assay [3], 71 nM.

Turning to `C=CC(=O)N1CC2(CCN(c3nc4c(c(-c5c(C)ccc6[nH]ncc56)c3Cl)COC(C)(C)C4)C2)C1` [Example 2-83, 1-(6-(3-chloro-7,7-dimethyl-4-(5-methyl-1H-indazol-4-yl)-7,8-dihydro-5H-pyrano[4,3-b]pyridin-2-yl)-2,6-diazaspiro[3.4]octan-2-yl)-2-propen-1-one], the concentration for half-maximal inhibition (IC50) was determined as 17 nM in assay [1], 12200 nM in assay [2] and 33 nM in assay [3].

With `C=CC(=O)N1CC2(CCN(c3cc4c(c(-c5c(C)ccc6[nH]ncc56)c3C#N)CCCC4)C2)C1` [Example 2-93, 1-(5-methyl-1H-indazol-4-yl)-3-(2-(2-propenoyl)-2,6-diazaspiro[3.4]octan-6-yl)-5,6,7,8-tetrahydro-2-naphthalenecarbonitrile], the IC50 is 70 nM in assay [1], 2040 nM in assay [2] and 19 nM in assay [3].

As for `C=CC(=O)N1CC2(CCN(c3cc4c(c(-c5c(C)ccc6[nH]ncc56)c3C#N)COCC4)C2)C1` [Example 2-95, 8-(5-methyl-1H-indazol-4-yl)-6-(2-(2-propenoyl)-2,6-diazaspiro[3.4]octan-6-yl)-3,4-dihydro-1H-2-benzopyran-7-carbonitrile], the figures for the IC50 in assay [1], in assay [2] and in assay [3] were 792 nM, above 5000 nM and 88 nM, respectively.

Regarding `C=CC(=O)N1CC2(CCN(c3cc4c(c(-c5c(C)ccc6cnn(C)c56)c3C#N)COCC4)C2)C1` [Example 2-96, 8-(1,6-dimethyl-1H-indazol-7-yl)-6-(2-(2-propenoyl)-2,6-diazaspiro[3,4]octan-6-yl)-3,4-dihydro-1H-2-benzopyran-7-carbonitrile], the IC50 was 246 nM in assay [1], above 5000 nM in assay [2] and 232 nM in assay [3].

With `C=CC(=O)N1CC2(CCN(c3cc4c(c(-c5c(C)ccc6cnn(C)c56)c3C#N)CCC(C)(C)C4)C2)C1` [Example 2-97, 1-(1,6-dimethyl-1H-indazol-7-yl)-6,6-dimethyl-3-(2-(2-propenoyl)-2,6-diazaspiro[3.4]octan-6-yl)-5,6,7,8-tetrahydro-2-naphthalenecarbonitrile], the IC50 in assay [1] was 207 nM; in assay [2] it was above 5000 nM; in assay [3] it was 82 nM.

`C=CC(=O)N1CC2(CCN(c3cc4c(c(-c5cc(O)cc6ccccc56)c3C#N)CCC(C)(C)C4)C2)C1` [Example 2-98, 3′-hydroxy-6,6-dimethyl-3-(2-(2-propenoyl)-2,6-diazaspiro[3,4]octan-6-yl)-5,6,7,8-tetrahydro[1,1′-binaphthalene]-2-carbonitrile]: the IC50 was 110 nM in assay [1], above 5000 nM in assay [2] and 55 nM in assay [3].

Take `C=CC(=O)N1CC2(CCN(c3cc4c(c(-c5c(C)ccc6cnn(C)c56)c3C#N)OCCC4)C2)C1` [Example 2-101, 8-(1,6-dimethyl-1H-indazol-7-yl)-6-(2-(2-propenoyl)-2,6-diazaspiro[3.4]octan-6-yl)-3,4-dihydro-2H-chromene-7-carbonitrile]: the IC50 came to 37 nM in assay [1], 13400 nM in assay [2] and 28 nM in assay [3].

`C=CC(=O)N1CC2(CCN(c3cc4c(c(-c5c(C(F)(F)F)ccc6[nH]ncc56)c3Cl)OCCC4)C2)C1` [Example 2-103, 1-(6-(7-chloro-8-(5-(trifluoromethyl)-1H-indazol-4-yl)-3,4-dihydro-2H-chromen-6-yl)-2,6-diazaspiro[3.4]octan-2-yl)-2-propen-1-one]: the IC50 in assay [1] was 118 nM; in assay [2] it was above 5000 nM; in assay [3], 294 nM.

With `C=CC(=O)N1CC2(CCN(c3cc4c(c(-c5c(C)c(Cl)cc6cnn(C)c56)c3C#N)OCCC4)C2)C1` [Example 2-104, 8-(5-chloro-1,6-dimethyl-1H-indazol-7-yl)-6-(2-(2-propenoyl)-2,6-diazaspiro[3.4]octan-6-yl)-3,4-dihydro-2H-chromene-7-carbonitrile], the results for the IC50 in assay [1], in assay [2] and in assay [3] were 3 nM, above 5000 nM and 18 nM, respectively.
